Laboratory results: US20230099441A1, “HETEROCYCLIC COMPOUND, APPLICATION THEREOF, AND COMPOSITION CONTAINING SAME” (GenEros Biopharma Ltd., priority 2019, published 2023)

How the values were obtained:
[1] = test system: STAT5 Y694 phosphorylation; assay: Protein electrophoresis and blotting of STAT5 Y694 phosphorylation in Jurkat cells stimulated with human interferon beta; assay type: cell-based; conditions: for Example of Effect 1: Inhibiting Ability (Protein Electrophoresis and Blotting): observed pSTAT5 bands at 10 μM and 100 μM; for Inhibiting Ratio (0% for vehicle control): 1 hour pretreatment, 20 ng/ml human interferon beta 30 minutes, pSTAT5/GAPDH
Procedure, shortened: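 Serum-free Jurkat cells pretreated with compound 1 h, then stimulated with 20 ng/ml human interferon beta for 30 min at 37° C. pSTAT5 measured by western blot with chemiluminescence, normalized to GAPDH and expressed as percent of DMSO control.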

[2] = test system: STAT5 Y694 phosphorylation; assay: HTRF experiment: STAT5 Y694 phosphorylation in Hela cells stimulated with human interferon beta; assay type: cell-based; conditions: 2 hours pretreatment, 10 nM human interferon beta 30 minutes
Description: Example of Effect 3: HTRF Experiment
Human Interferon 3 (IFN-0) (GenScript, Cat #P01574), STAT5 Y694 phosphorylation detection kit (STAT5 phospho-Y694 kit) (Cisbio; Cat #64AT5PEG).
Hela cells (ATCC American Standard Culture Center, CCL-2) were cultured in a 96-well plate at a density of 3×10^4 cells/well with DMEM medium containing 5% fetal bovine serum and maintained at 37° C. in a humidified incubator with 5% carbon dioxide overnight. On the second day, the original DMEM medium in the 96-well plate was sucked dry, and an equal volume of medium containing different concentrations of compounds (the mother liquor of the compound prepared by dimethyl sulfoxide was diluted in the medium at the required concentration) was added for pretreatment for 2 hours, and then it was placed in an incubator at 37° C. Then human interferon beta with a final concentration of 10 nM was added to stimulate, and it was gently shaken to mix well and then placed in an incubator at 37° C. for 30 minutes.
The medium was removed, an appropriate volume of PBS was added to wash, and then it was sucked dry. Then 40 microliters of 1× Lysis Buffer was added to each well and it was stood for 30 minutes at room temperature (1 ml 1× lysate preparation: 740 μl ddH2O was added to 250 μl 4× lysate and 10 μl Blocking reagent and it was mixed thoroughly). After 30 minutes, the cells were repeatedly blown until the lysis solution was not viscous (avoiding blowing out bubbles) to achieve sufficient lysis.
After overnight incubation, the signals of 665 nm and 620 nm were detected in a multifunctional microplate reader. The calculation formula for the detection of STAT5 Y694 phosphorylation is: Ratio=[(signal 665 nm)/(signal 620 nm)]×10^4. Treatment with dimethyl sulfoxide alone was the baseline control (Ratiobase), and the human interferon β stimulation without addition of the compound was the STAT5 Y694 full phosphorylation activation control (Ratiostimulation), the inhibition rate of STAT5 Y694 phosphorylation of different samples was normalized: Inhibition rate=[1−(RatioExperiment−Ratiobase)/(Ratiostimulation−Ratiobase)]*100.

Structure (SMILES) | Example of Effect 1: Inhibiting Ability (Protein Electrophoresis and Blotting) [1] | Example of Effect 3: Inhibiting Ratio@10 μM (HTRF Experiment) [2] [%] | Inhibiting Ratio (0% for vehicle control) ([1]; 1 μM) [%] | Inhibiting Ratio (0% for vehicle control) ([1]; 10 μM) [%] | Inhibiting Ratio (0% for vehicle control) ([1]; 100 μM) [%]
O=C(Cc1ccc(C(F)(F)F)cc1)N1CCC(N2C(=O)NCc3ccccc32)CC1 [GEN1-162, 1-(1-(2-(4-(trifluoromethyl)phenyl)acetyl)piperidin-4-yl)-3,4-dihydroquinazolin-2(1H)-one] | + | 22.04 |  |  | 
N#Cc1cccc2[nH]c(=O)n(C3CCN(C(=O)Cc4ccc5ncccc5c4)CC3)c12 [GEN1-151, 2-oxo-3-(1-(2-(quinolin-6-yl)acetyl)piperidin-4-yl)-2,3-dihydro-1H-benzo[d]imidazol-4-carbonitrile] | + | 39.02 |  |  | 
O=C(Cc1ccc2ncccc2c1)N1CCC(n2c(=O)[nH]c3cccc(C(F)(F)F)c32)CC1 [GEN1-117, 1-(1-(2-(quinolin-6-yl)acetyl)piperidin-4-yl)-7-(trifluoromethyl)-1H-benzo[d]imidazol-2(3H)-one] | ++ | 89.31 |  |  | 
O=C(Cc1ccc(C(F)(F)F)cc1)N1CCC(n2c(=O)[nH]c3ccc(C4CC4)cc32)CC1 [GEN1-089, 6-cyclopropyl-1-(1-(2-(4-(trifluoromethyl)phenyl)acetyl)piperidin-4-yl)-1H-benzo[d]imidazol-2(3H)-one] | + | 7.83 |  |  | 
O=C(Cc1ccc(C(F)(F)F)cc1)N1CCC(n2c(=O)[nH]c3c(N4CCOCC4)cccc32)CC1 [GEN1-154, 4-morpholino-1-(1-(2-(4-(trifluoromethyl)phenyl)acetyl)piperidin-4-yl)-1H-benzo[d]imidazol-2(3H)-one] | − | 6.10 |  |  | 
N#Cc1cccc2[nH]c(=O)n(C3CCN(C(=O)Cc4ccc(C(F)(F)F)cc4)CC3)c12 [GEN1-014, 2-oxo-3-(1-(2-(4-(trifluoromethyl)phenyl)acetyl)piperidin-4-yl)-2,3-dihydro-1H-benzo[d]imidazole-4-carbonitrile] | + | 16.12 | 14.2 | 78.8 | 99.1
O=C(Cc1ccc(C(F)(F)F)cc1)N1CCC(Cn2c(=O)[nH]c3cccc(C(F)(F)F)c32)CC1 [GEN1-174, 7-(trifluoromethyl)-1-((1-(2-(4-(trifluoromethyl)phenyl)acetyl)piperidin-4-yl)methyl)-1H-benzo[d]imidazol-2(3H)-one] | + | 39.65 |  |  | 
O=C(C[C@H]1CC[C@H](C(F)(F)F)CC1)N1CCC(n2c(=O)[nH]c3ccccc32)CC1 [GEN1-108, (trans)-1-(1-(2-(4-(trifluoromethyl)cyclohexyl)acetyl)piperidin-4-yl)-1H-benzo[d]imidazol-2(3H)-one] | + | 38.81 |  |  | 
O=C(Cc1ccc(C(F)(F)F)cc1)N1CCC2(CC1)C(=O)Nc1ccccc12 [GEN1-167, 1′-(2-(4-(trifluoromethyl)phenyl)acetyl)spiro[indoline-3,4′-piperidine]-2-one] | + | 15.57 |  |  | 
O=C(Cc1ccc2c(c1)OCCO2)N1CCC(n2c(=O)[nH]c3cccc(C(F)(F)F)c32)CC1 [GEN1-159, 1-(1-(2-(2,3-dihydrobenzo[b][1,4]dioxin-6-yl)acetyl)piperidin-4-yl)-7-(trifluoromethyl)-1,3-dihydro-2H-benzo[d]imidazol-2-one] | + | 22.99 |  |  | 
O=C(Cc1ccc2ncccc2c1)N1CCC(n2c(=O)[nH]c3ccccc32)CC1 [GEN1-075, 1-(1-(2-(quinolin-6-yl)acetyl)piperidin-4-yl)-1H-benzo[d]imidazol-2(3H)-one] | + | 10.79 |  |  | 
O=C(Cc1ccc(C(F)(F)F)cc1)N1CCC(n2c(=O)[nH]c3c(C(F)(F)F)cccc32)CC1 [GEN1-001, 4-(trifluoromethyl)-1-(1-(2-(4-(trifluoromethyl)phenyl)acetyl)piperidin-4-yl)-1H-benzo[d]imidazole-2(3H)-one] | + | 3.75 | 11.0 | 29.2 | 96.8
O=C(Cc1ccc2ncccc2c1)N1CCC(n2c(=S)[nH]c3ccccc32)CC1 [GEN1-137, 2-(quinolin-6-yl)-1-(4-(2-thio-2,3-dihydro-1H-benzo(d)imidazol-1-yl)piperidin-1-yl)ethan-1-one] | + | 19.51 |  |  | 
O=C(Cc1ccc2c(c1)OCO2)N1CCC(n2c(=O)[nH]c3cccc(C(F)(F)F)c32)CC1 [GEN1-116, 1-(1-(2-(benzo[d][1,3]dioxol-5-yl)acetyl)piperidin-4-yl)-7-(trifluoromethyl)-1,3-dihydro-2H-benzo[d]imidazol-2-one] | + | 35.01 |  |  | 
O=C(Cc1ccc(C(F)(F)F)cc1)N1CCC2(CC1)C(=O)NCN2c1ccccc1 [GEN1-049, 1-phenyl-8-(2-(4-(trifluoromethyl)phenyl)acetyl)-1,3,8triazaspiro[4.5]decane-4-one] | − | 18.33 |  |  | 
O=C(Cc1ccc(C(F)(F)F)cc1)N1CCC(n2c(=O)[nH]c3cccc(O)c32)CC1 [GEN1-016, 7-hydroxy-1-(1-(2-(4-(trifluoromethyl)phenyl)acetyl)piperidin-4-yl)-1H-benzo[d]imidazole-2 (3H)-one] | + | 9.50 |  |  | 
O=c1[nH]c2ccccc2n1C1CCN(C(=S)Cc2ccc(C(F)(F)F)cc2)CC1 [GEN1-128] | + | 13.88 |  |  | 
O=C(Cc1ccc(C(F)(F)F)cc1)N1CCC(n2c(=O)[nH]c3cccc([N+](=O)[O-])c32)CC1 [GEN1-091, 7-nitro-1-(1-(2-(4-(trifluoromethyl)phenyl)acetyl)piperidin-4-yl)-1H-benzo[d]imidazol-2(3H)-one] | + | 17.60 |  |  | 
